Measured values from patent publication US20100166806A1, “Combination therapy comprising the use of protein kinase C modulators and Histone Deacetylase inhibitors for treating HIV-1 latency” (Aphios Corporation, priority 2008, published 2010).
pEC50: −log10 of the molar value. Entries after “also recorded” stand apart in the source; their conditions may differ.

Assays:
[1] = system: bryostatin-1-induced HIV-1 reactivation in Jurkat-LAT-GFP cells; assay: Effect of PKC/MEK inhibitors on bryostatin-1-induced GFP expression in Jurkat-LAT-GFP cells; format: cell-based; settings: Jurkat-LAT-GFP cells preincubated with inhibitor, then bryostatin-1 (10 nM) 6 h
Experimental: The primary interest in Bryostatins has been initiated by recognition of the potent antiproliferative effects against various tumour cells. Such effects have been related to the ability of Bryo-1 to modulate protein kinase C (PKC) activity by activating or degrading certain isoforms of PKC. Since PKC activation mediates different signal pathways that in turn activate the transcription of latent HIV-1, we preincubated Jurkat-LAT-GFP cells with medium or the chemical inhibitors Gö6976 (classical PKCs inhibitor), Gö66850 (classical and novel PKCs inhibitor), Gö6983 (pan-PKC inhibitor), rottlerin (PKCδ inhibitor) and PD98059 (MEK inhibitor) at effective concentrations.
Jurkat LAT-GFP cells were pretreated with the indicated inhibitors for 30 min at the indicated dose, and then stimulated with bryostatin-1 (10 nM) for 6 h. The percentage of GFP+ cells was measured by flow cytometry. Results, shown in FIG. 9, are represented as percentage of activation compared to cells treated with agonists in the absence of the chemical inhibitors (100% activation). The chemical inhibitors Gö6976 (classical PKCs inhibitor), Gö6850 (classical and novel PKCs inhibitor), Gö6983 (pan-PKC inhibitor), rottlerin (PKCδ inhibitor) and PD98059 (MEK inhibitor) were used at the indicated concentrations.

[2] = system: HIV-1 latency in Jurkat-LAT-GFP cells; assay: HIV-1 reactivation in Jurkat-LAT-GFP cells (percentage of GFP+ cells by flow cytometry); format: cell-based; settings: for HIV-1 reactivation: 10 nM
CD4 = assay: Cell surface expression of CD4 on MT-2 cells by flow cytometry; format: cell-based, human
Experimental: (§1) This effect, shown in FIG. 12, is mediated though a PKC-dependent pathway and is not affected by the presence of VPA. MT-2 cells were treated with 10 nM of bryostatin in the presence or absence of either the PKC inhibitor Gö6850 or the HDAC inhibitor VPA for 24 h and the expression of CD4 and CXCR4 analysed. Cell surface expression of CD4 and CXCR4 antigens were measured by direct fluorescence using specific mAbs and analyzed by flow cytometry in an EPIC XL flow cytometer (Beckman-Coulter Inc. CA, USA). The anti-CXCR4 (clone 12G5, PE-labeled) was from BD Biosciences Pharmigen (San Diego, Calif., USA). The mAb anti-CD4 (clone 6D10, FITC-labelled) was from ImmunoTools (Friesoythe, Del.). Dual-Color Reagent Mouse IgG1/FITC+ Mouse IgG1/PE from DAKO (clone DAK-GO1 directed towards Aspergillus niger glucose oxidase) was used as negative control.

HIVIIIB variant of HIV-1 = assay: Virus-induced cytotoxicity assay (HIV-1-induced cell death in CEM-SS cells, XTT); format: cell-based
Experimental: The human T-lymphoblastic cell line CEM-SS was used as the target cell line and virus infections were performed using the HIVIIIB variant of HIV-1 (FIG. 13). Briefly, increasing concentrations of bryostatins (1, 2, 3 and AB) or 3TC (a known inhibitor of HIV RT) were incubated with 5,000 CEM-SS cells and HIVIIIB in a final volume of 200 μl/well at 37° C. for 6 days. After 6 days, 50 μl/well of XTT dye was added and the plate incubated for 4 hours at 37° C. The plate was then read at 450 nm with a reference at 630 nm and the percent CPE, percent inhibition, percent toxicity, effective concentration 50 (EC50), cytotoxic concentration (CC50) and the selective index (CC50/EC50) were calculated. Plates contained the following controls: media, cellular and viral.

[3] = cited from earlier work
IκBα = assay: Western blot of IκBα phosphorylation and degradation (NF-κB pathway) in Jurkat-LAT-GFP cells; format: cell-based
Experimental: (§2) Jurkat-LAT-GFP cells were stimulated with increasing concentrations of bryostatin-1 and the phosphorylation and degradation of the NF-κB inhibitor Iκbα, and the phosphorylation (activation) of the MAPKs, ERK and JNK, were investigated by western blots using specific mAbs.
(§3) Jurkat LAT-GFP cells were incubated with either bryostatin-1 (1, 10, 25, 50 and 100 nM) or with prostratin (0.01, 0.05, 0.1, 0.5, 1 and 10 μM) for 10 min. IκBα phosphorylation and degradation, the phosphorylation status of MAPKs ERK 1+2 and JNK 1+2, and the steady state levels of total ERK 1+2 were analyzed using specific antibodies by western blots. Control and treated cells were washed with PBS and proteins extracted in 50 μl of lysis buffer (20 mM Hepes pH 8.0, 10 mM KCl, 0.15 mM EGTA, 0.15 mM EDTA, 0.5 mM Na3VO4, 5 mM NaFl, 1 mM DTT, leupeptin 1 μg/ml, pepstatin 0.5 μg/ml, aprotinin 0.5 μg/ml, and 1 mM PMSF) containing 0.5% NP-40. Protein concentration was determined by the Bradford assay (Bio-Rad, Richmond, Calif., USA) and thirty μg of proteins were boiled in Laemmli buffer and electrophoresed in 10% SDS/polyacrylamide gels. Separated proteins were transferred to nitrocellulose membranes (0.5 A at 100 V; 4° C.) for 1 h. […]

MAPKs ERK1+2 and JNK1+2 = assay: Western blot of phosphorylation (activation) of MAPKs ERK and JNK in Jurkat-LAT-GFP cells; format: cell-based
Experimental: as §2, §3

CXCR4 = assay: Cell surface expression of CXCR4 on MT-2 cells by flow cytometry; format: cell-based, human
Experimental: as §1

[4] = system: HIV-1 latent infected cells; settings: three of four patients; VPA 500-750 mg twice a day; cited from earlier work
[5] = increasing concentrations of bryostatin-1
[6] = MT-2 cells, 10 nM bryostatin, 24 h

CN(C)CCCn1cc(C2=C(c3c[nH]c4ccccc34)C(=O)NC2=O)c2ccccc21 [Gö6850]
Inhibition of GFP expression induced by Bryostatin-1 [1]: strongly inhibited

CC(/C=C/C(=O)NO)=C\[C@@H](C)C(=O)c1ccc(N(C)C)cc1 [TSA, trichostatin A, reference compound]
Synergy with bryostatin-1 to antagonise HIV-1 latency [2]: synergises

CC(=O)c1c(O)c(C)c(O)c(Cc2c(O)c3c(c(C(=O)/C=C/c4ccccc4)c2O)OC(C)(C)C=C3)c1O [rottlerin]
Inhibition of GFP expression induced by Bryostatin-1 [1]: did not affect

CCC/C=C/C=C/C(=O)O[C@H]1[C@H]2C=C3C[C@H]([C@@H](C)O)OC(=O)C[C@H](O)C[C@@H]4C[C@H](OC(C)=O)C(C)(C)[C@](O)(C[C@@H]5C/C(=C\C(=O)OC)C[C@H](/C=C/C(C)(C)[C@]1(OC(=O)C2)O3)O5)O4 [bryostatin-3]
HIV-1 reactivation ([2]; Jurkat-LAT-GFP cells): strongly induce HIV-1 reactivation

bryostatin-2
HIV-1 reactivation ([2]; Jurkat-LAT-GFP cells): strongly induce HIV-1 reactivation

COc1ccc2c(c1)c(C1=C(c3c[nH]c4ccccc34)C(=O)NC1=O)cn2CCCN(C)C [Gö6983]
Inhibition of GFP expression induced by Bryostatin-1 [1]: strongly inhibited

CCC/C=C/C=C/C(=O)O[C@H]1/C(=C/C(=O)OC)C[C@H]2C[C@H]([C@@H](C)O)OC(=O)C[C@H](O)C[C@@H]3C[C@H](OC(C)=O)C(C)(C)[C@](O)(C[C@@H]4C/C(=C/C(=O)OC)C[C@H](/C=C/C(C)(C)[C@]1(O)O2)O4)O3 [bryostatin-1]
Expression of HIV-1 receptor CD4 (CD4; 10 nM): downregulates
pEC50 (HIVIIIB variant of HIV-1): 7.59
Tissue accumulation after i.v. injection [3]: accumulated in several tissues including lymph nodes and the gastrointestinal tract
IκBα phosphorylation and degradation (IκBα; 10 nM): does not induce
Phosphorylation and degradation of IκBα (IκBα; [5]): induced phosphorylation and degradation
HIV-1 reactivation in the presence of valproic acid [2]: can induce HIV-1 reactivation
HIV-1 reactivation ([2]; Jurkat-LAT-GFP cells): strongly induce HIV-1 reactivation; also recorded: fully reactivates HIV-1 latency
Potency to antagonize HIV-1 latency relative to prostratin ([2]; Jurkat-LAT-GFP cells, 6 h, versus prostratin): 100 Fold
HIV-1 reactivation (GFP+ cells) ([2]; bryostatin-1 100 nM, Jurkat-LAT-GFP cells): 87 % of GFP+ cells
Reduction of the bryostatin-1 concentration allowed by HDACs inhibitors ([2]; in combination with HDACs inhibitors): at least one order of magnitude
JNK activation (MAPKs ERK1+2 and JNK1+2; 10 nM): does not induce
Activation of the MAPKs ERK1+2 and JNK1+2 (MAPKs ERK1+2 and JNK1+2; [5]): in a concentration dependent manner
Expression of HIV-1 receptor CXCR4 (CXCR4; 10 nM): downregulates

CCCC(CCC)C(=O)O [Valproic acid, valproic acid, reference compound]
Effect of VPA on bryostatin-induced CD4 downregulation (CD4; [6]): not affected
Synergy with bryostatin-1 to antagonise HIV-1 latency [2]: synergises
Depletion of HIV-1 latent infected cells in patients [4]: significant depletion
Effect of VPA on bryostatin-induced CXCR4 downregulation (CXCR4; [6]): not affected

COc1cccc(-c2cc(=O)c3ccccc3o2)c1N [PD98059]
Inhibition of GFP expression induced by Bryostatin-1 [1]: partially inhibited

Cn1c2ccccc2c2c3c(c4c5ccccc5n(CCC#N)c4c21)CNC3=O [Gö6976]
Inhibition of GFP expression induced by Bryostatin-1 [1]: strongly inhibited
